The text below walks through data of PMC3974779, “Pterostilbene-Isothiocyanate Conjugate Suppresses Growth of Prostate Cancer Cells Irrespective of Androgen Receptor Status” (PLoS ONE, 2014).

Where only a bound is given, the exact number is not on record here.

Experiment [1] has as its system PC-3 cells. The experiment is described as follows: MTT cytotoxicity assay. The note with it: Homo sapiens; PC-3, MTT, 24 h exposure, mean ± SEM; read-out: IC50 value (50% growth inhibition). It counts as cell-based. The procedure: (§1) MTT assay was carried out as described previously. In brief, 5×10^3 cells in 200 μl of medium were seeded in 96-well plates (Griener, Germany). After 24 h, the cells were treated with various concentrations (0.1, 1, 10, 100 and 1000 μM) of RESV, PTER and conjugate. The control cells were treated with 0.1% DMSO (vehicle control). The cultured cells were assayed after 24 h by adding 20 μl of 5 mg/ml MTT followed by incubating at 37°C for 4 h. The MTT containing media was then aspirated and 200 μl DMSO (Himedia, Mumbai, India) was added to dissolve the formazone crystals. The optical density (OD) was measured at 570 nm using ELISA plate reader (Fluostar optima, BMG Labtech, Germany). The percentage inhibition was calculated as: [drawing 1]
(§2) The dose response curve and IC50 values were obtained by nonlinear regression analysis [non-linear regression (sigmoidal dose response with variable slope)] using Graph Pad Prism, version 5.02 software (Graph Pad Software Inc., CA, USA).

In another experiment the test system is COS-1 cells. Put plainly: MTT cytotoxicity assay. It counts as cell-based. To be noted: Chlorocebus aethiops, COS-1 noncancer cells, 24 h exposure, read-out: IC50 value (50% growth inhibition). As to the method: as §1, §2
A further experiment relates to CHO cells. The experiment is described as follows: MTT cytotoxicity assay. It counts as cell-based. The note with it: Cricetulus griseus, CHO noncancer cells, 24 h exposure, read-out: IC50 value (50% growth inhibition). The procedure:
as §1, §2
On the technique in general: Formazan colour is commonly taken as a measure of viable cells.

Experiment [2] deals with LNCaP cells. The experiment is described as follows: MTT cytotoxicity assay. It counts as cell-based. The note with it: Homo sapiens, 24 h, 24 h exposure, mean ± SEM, read-out: IC50 value (50% growth inhibition). As to the method:
as §1, §2

The subject of experiment [3] is PC-3 cells. Put plainly: Cell cycle distribution by flow cytometry. It counts as cell-based, human. The note with it: PC-3, 40 μM, 24 h (control 22%). As to the method:
(§3) Cell cycle distribution and Annexin V/Propidium iodide (PI) positive cells were analyzed using flow cytometry. In brief, first the cells were seeded and treated with 0, 10, 20 and 40 μM conjugate in complete medium for 24 h. This was followed by trypsinizing and fixing in 70% ethanol, and finally washing with PBS. Subsequently, the cells were treated with RNase A (50 μg/ml), stained with PI (50 μg/ml) and incubated in the dark for 30 min at room temperature and analyzed by flow cytometry for cell cycle distribution. For apoptosis, the conjugate treated cells were stained with Alexa-Fluor 488-conjugated Annexin-V using the Vybrant-Apoptosis Assay Kit from Invitrogen (USA) as per the manufacturer’s protocol. The stained cells were then analyzed by fluorescence activated cell sorting (FACS Calibur, BD Biosciences, San Jose, CA, USA) and the data were standardized using Cell Quest 3.3 software.
For orientation: Flow cytometry measures light scatter and fluorescence of single cells or particles in a stream.

Experiment [4] concerns LNCaP cells. The experiment is described as follows: Cell cycle distribution by flow cytometry. It counts as cell-based, human. As to the method: as §3
In experiment [5] the test system is p53 protein in LNCaP cells. Put plainly: Immunoblot of p53 with p53 inhibitor. The note with it: 20 μM PFT-α, 20 and 40 μM conjugate, 24 h. It counts as cell-based, human. The procedure:
The whole-cell lysates were prepared as described previously in immunoprecipitation (IP) buffer containing 50 mM Tris-HCl (pH 8.0), 150 mM NaCl, 5 mM EDTA, and 1% Triton X-100. Protein aliquots of 500 μg were then incubated overnight at 4°C using 2 μg of antibody directed against AR. The Protein A-Cl Agarose beads were then added and further incubated for 6 h at 4°C. The immunoprecipitates were washed four times with the IP buffer and the immunocomplexes were recovered by boiling in SDS sample buffer. Finally the western blot was carried out using anti-AR, anti-SRC-1 and anti-GRIP-1 antibodies (Santa Cruz, CA, USA). For western blot analysis, the cell lysates were prepared after harvesting them in lysis buffer. About 40 μg of total protein was electrophoresed by 12% SDS-PAGE, and the western blotting was carried out using standard protocol. In brief, the analyzed proteins were transferred to nylon membranes. […]
Since there was no significant difference in the number of apoptotic cells between conjugate treated LNCaP (wild type p53) and PC-3 (p53 null) cells (p<0.05), it was intriguing to check if p53 has any role in conjugate induced apoptosis of PCa cells. […] Next we determined the effect of p53-inhibition on conjugate induced cell death by using MTT assay.
(Immunoblotting shows a protein as a band on a membrane.)

Experiment [6] deals with caspase-3 expression in LNCaP cells. The experiment is described as follows: Immunoblot analysis of apoptotic markers. It counts as cell-based, human. The note with it: highest dose (40 μM), immunoblot densitometry. As to the method:
(§4) The whole-cell lysates were prepared as described previously in immunoprecipitation (IP) buffer containing 50 mM Tris-HCl (pH 8.0), 150 mM NaCl, 5 mM EDTA, and 1% Triton X-100. Protein aliquots of 500 μg were then incubated overnight at 4°C using 2 μg of antibody directed against AR. The Protein A-Cl Agarose beads were then added and further incubated for 6 h at 4°C. The immunoprecipitates were washed four times with the IP buffer and the immunocomplexes were recovered by boiling in SDS sample buffer. Finally the western blot was carried out using anti-AR, anti-SRC-1 and anti-GRIP-1 antibodies (Santa Cruz, CA, USA). For western blot analysis, the cell lysates were prepared after harvesting them in lysis buffer. About 40 μg of total protein was electrophoresed by 12% SDS-PAGE, and the western blotting was carried out using standard protocol. In brief, the analyzed proteins were transferred to nylon membranes. The blots were then blocked with TBST buffer (20 mM Tris-Cl, pH 7.5, 150 mM sodium chloride, 0.05% Tween-20) containing 5% skim milk powder. They were then washed with TBST buffer and incubated overnight at 4°C with the same buffer containing appropriate amounts of primary antibodies: caspase-3, Bax, Bcl-2, Akt, p-Akt, ERK, p-ERK, AR, SRC-1, GRIP-1 (1∶500) and β-actin (1∶1000). The blots were then washed and incubated with anti-rabbit secondary antibody (1∶20,000) conjugated with horseradish peroxidase (HRP). Color development was performed in the dark by using an ECL kit (Amersham, GE Healthcare, Buckinghamshire, UK). The developed blots were subjected to densitometric analysis by ImageJ 1.43 software (NIH, USA) using β-actin as internal control.

Experiment [7] relates to caspase-3 expression in PC-3 cells. The experiment is described as follows: Immunoblot analysis of apoptotic markers. It counts as cell-based, human. To be noted: PC-3, highest dose (40 μM), immunoblot densitometry. The procedure: as §4
The next experiment concerns p-Akt in PC-3 cells. Put plainly: Immunoblot of Akt phosphorylation. It counts as cell-based, human. The note with it: 24 h. The procedure: as §4
(§5) The siRNAs against human Akt and ERK and control siRNA were purchased commercially from Santa Cruz Biotechnology (USA). The LNCaP and PC-3 PCa cells were transfected with siRNAs (at a final concentration of 100 nM) using polyfect transfection reagent (Qiagen, CA, USA) according to manufacturer’s instructions. After 24 h of transfection, the cells were washed properly and replaced with fresh medium. The cells were then treated with 20 μM conjugate for 24 h, and finally protein lysates were prepared on completion of treatment. The levels of p-Akt, p-ERK and cleaved caspase-3 expressions were detected by Western blot analysis.

For the next experiment, the system named is p-Akt in LNCaP cells. Put plainly: Immunoblot of Akt phosphorylation. The note with it: below 20 μM, 24 h. It counts as cell-based, human. The procedure:
as §4, §5

Broadly, the IC50 is the point on the concentration scale where inhibition reaches its midpoint. Regarding `COc1cc(/C=C/c2ccc(O)c(/C=N/NC(N)=S)c2)cc(OC)c1` [conjugate, Pterostilbene-isothiocyanate conjugate], the IC50 in the experiment on PC-3 cells [1] was 45 ± 1.5 µM; in the experiment with COS-1 cells, over 100 µM; with CHO cells, over 100 µM; with LNCaP cells [2], 40 ± 1.12 µM. Moreover, in the experiment on PC-3 cells [3], the “cells arrested in G2/M phase” value is “approximately 50%”. Besides, the “accumulation of cells in G2/M phase” value with LNCaP cells [4] (increasing doses of conjugate, 24 h) was 16–35%. Further, in the experiment with LNCaP cells [4] (treated cells, 24 h (control 11%)), the “cells in G2/M phase” value is 35%. In experiment [5], the “expression of p53 protein” value is listed as “dose dependent increase”. Besides, the “enhancement of caspase-3 expression” value in experiment [6] is “about 8.5 folds”; in experiment [7] it was about 6 folds. The “decrease in level of p-Akt” value in the experiment on p-Akt in PC-3 cells (PC-3, 20 μM) was about 2.2 folds; with p-Akt in PC-3 cells (PC-3, 40 μM), about 4.4 folds. Moreover, in the experiment on p-Akt in LNCaP cells, the “effect on level of p-Akt” value is on record as “negligible effects”.
